Reference: patent US20100190729A1 (CHUNG-ANG University Industry Academic Cooperation …, priority 2009, published 2010)

Columns and labels:
[1] = tested on: BSA (bovine serum albumin); assay: BSA degradation test (anti-oxidative activity, Cu2+/H2O2); type: biochemical
Experimental: The hydroxyl radical-mediated oxidation experiments were carried out by metal-catalyzed reactions. BSA (bovine serum albumin) was dissolved in 150 mM phosphate buffer (pH 7.3) to a final concentration of 0.5 mg/ml. […] 50 μg/ml of ascorbic acid was directly dissolved in 1×PBS and served as a control (an anti-oxidant). After incubation in an open tube, the reaction was kept to stand in a 37° C. shaking water bath. Each experimental group was loaded on 10% SDS-PAGE and stained with 0.01% Coomassie blue.
50 μg of BSA (Sigma) was added to 37.5 mM phosphate buffers (pH 7.3) containing 100 μM Cu^2+, 2.5 mM H2O2 and various amounts of hirsutanonol (1, 50, 100/200 μg/ml), and incubated at 37° C. for 2 hrs. Vitamin C (50 μg/ml) was served as a positive control. The reaction mixture was separated on 10% SDS gel and the protein bands were stained with 0.01% Coomassie blue.
Evaluation of anti-oxidative activity was preformed according to a BSA (bovine serum albumin) degradation test. BSA degradation test is a method to verify a capacity of an anti-oxidative compound which protects proteins or enzymes from damage by reactive oxygen species (ROS) using a metal ion-catalyzed reaction. […] The reaction mixture was electrophoresized on 10% SDS-PAGE (SDS-polyacrylamide gel).
To examine anti-oxidative activity of hirsutanonol, the removal of radical produced from H2O2/Cu^2+ was measured.

Jurkat cells = assay: Inhibition of cell proliferation, CCK assay (WST-8); type: cell-based, human
Experimental: FIG. 7 is a graph measuring the inhibitory effect of hirsutanonol on cell proliferation. Jurat cells were seeded into a 96 well plate at a concentration of 1×10^4 cells per well, and cultured in 2% FBS DMEM with or without hirsutanonol. Cell numbers were counted in triplicate wells by measuring the absorbance of reduced WST-8 (Dojindo, Japan) at 450 nm.
Hirsutanonol activity to inhibit cell proliferation of Jurkat cells was tested using CCK assay. […] Therefore, about 50 μg/ml of hirsutanonol was used in experiments to assess in vitro activity of hirsutanonol.

IL-2 [2] = assay: IL-2 expression in anti-CD3 activated murine splenocytes, ELISA; type: cell-based, mouse
Experimental: FIG. 8 is the experimental results showing the inhibitory effect of hirsutanonol on IL-2 expression. Murine splenocytes were grown on 96 well plate at a concentration of 1.5×10^4 cells per well. For T cell activation, CsA (50 nM) and hirsutanonol were added into a well added with anti-CD3 mAb and into all of other wells. Cells were incubated for 72 hrs and then ELISA was carried out using the supernatants collected from each well.
IL-2 is a cytokine expressed in Th1 cells and plays a crucial role in the proliferation of T cells. Hirsutanonol was added to splenic T cells which have been primarily cultured from murine splenocytes and pre-activated by anti-CD3 mAb. Inhibitory activity of hirsutanonol on IL-2 expression was measured using ELISA. Cyclosporine A (CsA) with strong inhibitory activity against IL-2 secretion was served as a positive control.

IL-2 [3] = assay: IL-2 mRNA expression in anti-CD3 activated splenocytes, RT-PCR; type: cell-based, mouse
Experimental: (§1) FIG. 9 represents RT-PCR results showing an inhibitory effect of hirsutanonol on Th1 and Th2 cytokine expression. Murine splenocytes were cultured on 12 well plate (RT-PCR) at a concentration of 1.5×10^4 cells per well. For T cell activation, CsA (50 nM) and hirsutanonol were added into a well added with anti-CD3 mAb and all of other wells. Cells were incubated for 24 hrs and then […] was carried out. GAPDH was served as an internal control.
(§2) The mRNA expression levels of Th1 cytokines, IL-2 and Th2 cytokines, IL-4, IL-10 and IL-13 were examined. T cells activated by anti-CD3 mAb among spleen lymphocytes were used as a target. The primer sequences used to analyze IL-2, IL-4, IL-10 and IL-13 mRNA are as follows.

IL-4 = IL-4 mRNA expression in anti-CD3 activated splenocytes, RT-PCR; type: cell-based, mouse
Experimental: as §1, §2

IL-10 = IL-10 mRNA expression in anti-CD3 activated splenocytes, RT-PCR; type: cell-based, mouse
Experimental: as §1, §2

IL-13 = IL-13 mRNA expression in anti-CD3 activated splenocytes, RT-PCR; type: cell-based, mouse
Experimental: as §1, §2

rat mast cell (RBL-2H3) = assay: β-hexosaminidase assay (mast cell degranulation); type: cell-based
Experimental: FIG. 10 represents experimental results of β-hexosaminidase assay for hirsutanonol. The β-hexosaminidase (beta-hex) assay was performed according to the standard protocol of RBL-2H3 cell line. Suitable supernatant was collected and beta-hex activity was measured by incubating with a beta-hex substrate (p-nitrophenyl N-acetyl-beta-D-glucosaminide; Sigma) colored at 405 nm by cutting.
For testing the degranulation in rat mast cell (RBL-2H3) by hirsutanonol, β-hexosaminidase assay was carried out. β-hexosaminidase assay allows us to measure the activity and degranulation of mast cells.

CD25/CD69 = assay: T-cell early activation markers, flow cytometry; type: cell-based, mouse; settings: 100 μg/ml, splenocytes stimulated by anti-CD3 mAb, 24 hrs
Experimental: FIG. 12 is a flow cytometry result analyzing the changes of CD25/CD69 expression induced by hirsutanonol. Splenocytes were stimulated by anti-CD3 mAb in the presence or absence of hirsutanonol. Each hirsutanonol and CsA was treated at concentrations of 50 and 100 μg/ml, and 50 nM. After incubation for 24 hrs, the percentage of cells expressing CD25 and CD69 were measured using flow cytometry.
CD25 and CD69 expression levels were comparatively measured in the group of basal, CsA and hirsutanonol (50, 100 μg/ml) respectively. CsA was used as a control group due to its strong inhibitory activity on CD25 and CD69 expression. The results were represented in FIG. 12.

[4] = Solubility in water on preparing the stock solution; settings: stock solution preparation
Text: The final concentration of DMSO was adjusted to not more than 0.1% so as to maximally exclude the interference of the solvent. […] The prepared stock solutions were stored and then used after dilution to the suitable concentration.

solubility in water [4]	Compound	BSA protection effect ([1]; hirsutanonol 100 μg/ml)	activity to protect BSA ([1]; hirsutanonol 1, 50, 100/200 μg/ml, Cu2+ 100 μM, H2O2 2.5 mM)	BSA protection effect compared to Vitamin C ([1]; hirsutanonol, Vitamin C 50 μg/ml positive control)	concentration exhibiting inhibitory effects on cell proliferation (Jurkat cells)	inhibitory effect on IL-2 expression compared to CsA (IL-2 [2]; 50 μg/ml or 100 μg/ml, CsA 50 nM, 72 hrs)	inhibition effect on IL-2 secretion (IL-2 [2]; 50 μg/ml, without cytotoxicity)	inhibitory activity on IL-2 mRNA expression (IL-2 [3]; 50 μg/ml or 100 μg/ml)	inhibitory effect on IL-2 mRNA expression compared to CsA (IL-2 [3]; 100 μg/ml, CsA 50 nM)	inhibitory activity on IL-4 mRNA expression (IL-4; 50 μg/ml or 100 μg/ml)	inhibitory effect on IL-4 mRNA expression compared to CsA (IL-4; 100 μg/ml, CsA 50 nM)	inhibitory activity on IL-10 mRNA expression (IL-10; 50 μg/ml or 100 μg/ml)	inhibitory effect on IL-10 mRNA expression compared to CsA (IL-10; 100 μg/ml, CsA 50 nM)	inhibitory activity on IL-13 mRNA expression (IL-13; 50 μg/ml or 100 μg/ml)	inhibitory effect on IL-13 mRNA expression compared to CsA (IL-13; 100 μg/ml, CsA 50 nM)	activity level of β-hexosaminidase (rat mast cell (RBL-2H3); 100 μg/ml)	inhibitory capability compared to CsA (rat mast cell (RBL-2H3); β-hexosaminidase) [fold]	inhibitory activity on CD25/CD69 expression compared to basal and CsA (CD25/CD69)
–	O=C(CCc1ccc(O)c(O)c1)CC(O)CCc1ccc(O)c(O)c1 (stereo not drawn) [hirsutanonol]	significantly exhibited BSA protection effect	increased in a concentration-dependent manner	lower than that of Vitamin C	over 50 μg/ml	much higher than that of CsA	remarkably exhibited	significant inhibitory activity	inhibitory effect equal to CsA	significant inhibitory activity	inhibitory effect equal to CsA	significant inhibitory activity	inhibitory effect equal to CsA	significant inhibitory activity	inhibitory effect equal to CsA	maximally inhibited	20	excellent inhibitory activity
feasibly dissolved in water	O=C(CCc1ccc(O)c(O)c1)C[C@H](CCc1ccc(O)c(O)c1)O[C@@H]1OC[C@@H](O)[C@H](O)[C@H]1O [oregonin]	–	–	–	–	–	–	–	–	–	–	–	–	–	–	–	–	–
